Here are results for two compounds from patent US8137970B2, “Methods for inducing the differentiation of hematopoietic stem cells into megakaryocytes and platelets, and gene controlling the differentiation” (Ewha University-Industry Collaboration Foundation, priority 2008, dated 2012).

Common to all, as to type: cell-based, human
The test system of assay [1] is umbilical cord blood-derived CD34+ hematopoietic stem cell. Briefly: Morphological change and polyploidization of CD34+ hematopoietic stem cells cocultured with OP9 stromal cells. The method, then: (§1) The OP9 stromal cell line was aliquoted into 6-well culture plate at a density of 1×10^5/well, and cultured for 24 hrs as a monolayer in a-MEM supplemented with 20% heat-inactivated FBS, 0.5% penicillin/streptomycin and 1.5 g/L sodium bicarbonate. When the OP9 stromal cell line was cultured as a monolayer, the media was replaced with StemSpan™ H3000 for CD34+ hematopoietic stem cell culture. Then, the CD34+ hematopoietic stem cells were aliquoted upper the op cells at a density of 3×10^5/well.
In order to confirm the distinct morphological change of the umbilical cord blood-derived CD34+ hematopoietic stem cell treated with the compound of Formula 1, the cells were treated with the compound of Formula 1 and the known hematopoietic stem cell differentiation inducers, CC100, CC200, IL-3, IL-6, TPO and SCF, so as to investigate morphological changes and polyploidization of the CD34+ hematopoietic stem cell.
The CD34+ hematopoietic stem cells cocultured with OP9 cells through Example 1 were treated with each of the materials. The cells were treated with each of the hematopoietic stem cell differentiation inducers at a following concentration; CC100 (rhFlt-3 ligand 100 ng/ml, SCF 100 ng/ml, IL-3 20 ng/ml, IL-6 20 ng/ml), CC200 (rhTPO 50 ng/ml, rhSCF 50 ng/ml, IL-3 10 ng/ml), Megacult-C (TPO 5 ng/ml, IL-3 1 ng/ml, IL-6 2 ng/ml), IL-3 of 10 ng/ml, IL-6 of 20 ng/ml, SCF of 50 ng/ml, and (R)-NALPCE of 45 μg/ml.
After 8 days, the cells were photographed by Mag. ×200 to examine the morphological changes (FIG. 1).
In addition, polyploidization of the cells was analyzed by FACS (flow cytometer). The cells were harvested and resuspended with 1×PBS containing 0.1% saponin. 10 mg/mL RNAse A and propidium iodide solution were added thereto. Thereafter, the cells were incubated at room temperature for 30 min. The cells were analyzed by FACS caliber flow cytometer and Cell quest software. Results are means±SD (n=3). Similar results were obtained in three independent experiments (FIG. 1).

Assay [2] relates to umbilical cord blood-derived CD34+ hematopoietic stem cells. The experiment in a line: CD41 / CD61 megakaryocyte-specific marker expression by FACS in CD34+ hematopoietic stem cells cocultured with OP9. Conditions: FIG. 2. The procedure:
as §1
In order to confirm whether the differentiation of the umbilical cord blood-derived CD34+ hematopoietic stem cells into megakaryocytes and platelets was induced by treatment of the compound of Formula 1, the cells were treated with the compound of Formula 1 and the known hematopoietic stem cell differentiation inducers, CC200 and Megacult-C, singly or in a mixture. Then, expression of megakaryocyte-specific marker, CD41 or CD61 was analyzed.
The CD34+ hematopoietic stem cells cocultured with OP9 cells through Example 1 were treated with each of the hematopoietic stem cell differentiation inducers at a following concentration; CC200 (rhTPO 50 ng/ml, rhSCF 50 ng/ml, IL-3 10 ng/ml), Megacult-C (TPO 5 ng/ml), and (R)-NALPCE 35 ug/ml in culture media.
After 8 days, the culture media were centrifuged (1,000 rpm, 10 min), and the cell pellets thus obtained were washed three times with PBS. The cells were incubated with 20 μl of Fluorescein isothiocyanate (FITC)-conjugated mouse anti-human monoclonal CD41 antibody (DAKOCycomation, Denmark) or 20 μl of Fluorescein isothiocyanate(FITC)-conjugated mouse anti-human monoclonal CD61 antibody (DAKOCycomation, Denmark) in 200 μl of 0.01% bovine serum albumin (BSA)-PBS at 37° C. for 30 min while spinning to realize homogeneous fluorescent staining. After centrifugation (1,000 rpm, 10 min), the cell pellets thus obtained were washed three times with 0.01% bovine serum albumin (BSA) in PBS. Fluorescence was analyzed on a fluorescence-activated cell sorter (FACS Aria) using a Cellquest program. Results are means±SD (n=3). […]
Background: A flow cytometer gives signals particle by particle.

Assay [3] deals with K562 cells. The experiment in a line: Oligonucleotide array (genechip) of gene expression during megakaryocytic differentiation. The note with it: K562 cells treated with 50 μg/ml vs undifferentiated cells. The method, then: (§2) The OP9 stromal cell line was aliquoted into 6-well culture plate at a density of 1×10^5/well, and cultured for 24 hrs as a monolayer in a-MEM supplemented with 20% heat-inactivated FBS, 0.5% penicillin/streptomycin and 1.5 g/L sodium bicarbonate. When the OP9 stromal cell line was cultured as a monolayer, the K562 cells were aliquoted upper the OP9 cells at a density of 1×10^5/well, and cocultured with the OP9 cells. These K562 cells were treated with (R)-NALPLE (see Korean Patent No. 10-0688261) at a concentration of 50 μg/ml to induce megakaryocytic differentiation.
mRNAs were extracted from normal K562 cells and compound-treated K562 cells by the method of Example 5. To understand the genetic events during megakaryocytic development, the K562 cells were incubated for 6, 12, 24, 48, 72, 96, and 120 hr with the compound, and mRNAs were extracted from each cell using an RNeasy mini kit (Qiagen, USA). A genechip analysis was performed using 1 μg of RNA and an oligonucleotide array from Macrogen.
From analyzed data, total 67 genes, of which expression levels were increased more than 5-fold in differentiated K562 cells, were assigned. The functional categories included transcription factor, receptor, miscellaneous function, select calcium binding protein, phosphatase, signaling molecule, select regulatory factor, protease, nucleic acid binding, cytoskeleton protein, kinase, cell adhesion molecule, transferase, synthase, hydrolase defense/immunity and molecular function unclassified. Among these genes, selected were 4 genes of which expression levels were increased more 10 fold in differentiated cells, such as KLF2 (Kiruppel-like factor2), LOC138255 (OTTHUMP00000021439), GDF15 (growth differentiation factor 15) and INHBE (inhibin, betaE).

Assay [4] relates to K562 cells. The experiment in a line: Polyploidization (FACS) and morphology of shRNA-transfected K562 cells cocultured on OP9 in (R)-NALPCE. The note with it: 50 μg/mL for 4 days, cocultured on OP9, FIG. 4. The method, then: To confirm whether the selected genes regulate the differentiation into megakaryocyte and platelets, shRNAs capable of inhibiting expressions of the KLF2, LOC138255, GDF15, and INHBE genes were constructed, and K562 cells were transfected with shRNAs.
The transfected K562 cells were sorted by FACS Aria flow cytometer, and cocultured upper OP9 stromal cells in 50 μg/mL of (R)-NALPCE for 4 days. Then, the cells were analyzed with a fluorescence-activated cell sorter using Cell quest, and photographed by Mag. ×200. Results are means±SD (n=3). Similar results were obtained in three independent experiments (FIG. 4).

Assay [5] concerns K562 cells. Briefly: RT-PCR of KLF2, LOC138255, GDF15 and INHBE mRNA during megakaryocytic development. The note with it: 50 μg/ml, incubated 6, 12, 24, 48, 72, 96 and 120 hr, FIG. 3. The method, then: as §2
To analyze the expression patterns of the selected 4 genes, KLF2, LOC138255, GDF15, and INHBE during megakaryocytic development, RT-PCR was performed to measure the mRNA level in cells.
In order to specifically analyze their expression patterns during megakaryocytic development, the K562 cells were incubated for 6, 12, 24, 48, 72, 96, and 120 hr with the compound ((R)-NALPLE 50 μg/ml). Total cellular RNA was extracted from the K562 cells using an RNeasy mini kit following the manufacturer's instructions using M-MLV Reverse Transcriptase (Promega, Madison, Wis.), and RT-PCR was performed.
Amplification conditions were followed by 20 cycles (for GAPDH) or 25 cycles (for KLF2, LOC138255, GDF15, and INHBE) at 95° C. for 30 seconds, 60° C. for 60 seconds, and 72° C. for 90 seconds. The primers used were the following: • KLF2 forward primer (SEQ ID NO.1): 5′-[…]-3′ • reverse primer (SEQ ID NO.2);5′-CATGTGCCGTTTCATGTGC-3′ • LOC138255 forward primer )SEQ ID NO.3); 5′-[…]-3′ • reverse primer )SEQ ID NO. 4);5′-[…]-3′ • GDF15 forward primer 9SEQ ID NO. 5); 5′-[…]-3′ • reverse primer (SEQ ID NO. 6): 5′-[…]-3′ • INHBE forward primer (SEQ ID NO. 7); 5′-[…]-3′ • reversre primer (SEQ ID NO. 8);5′[…]-3′ • GARDH forward primer (SEQ ID NO. 9);5′-[…]-3′ • reverse primer (SEQ ID NO. 10);5′-[…]-3′
After PCR reaction, each reaction mixture was analyzed by 1% agarose gel electrophoresis, and the bands were visualized by ethidium bromide staining (FIG. 3).

For the compound `CCCCCCCCCCCCCCCCCC(=O)N[C@H](COP(=O)([O-])OCC[N+](C)(C)C)C(=O)OC` [compound of Formula 1, N-steroyl-O-phosphocholine-D-serine methyl ester], the “morphological change (morphological feature of megakaryocytes)” value in assay [1] (45 μg/ml, after 8 days, cocultured with OP9 cells, photographed Mag. x200, FIG. 1) is “increase in cytoplasmic mass and cell size”. In addition, the “polyploidization (FACS, propidium iodide)” value in assay [1] (45 μg/ml, cocultured with OP9 cells, FIG. 1) is “high nucleus number due to polyploidization through endomitosis”. Also, the “megakaryocytic differentiation together with CC200, compared to each single treatment” value in assay [1] (addition of compound to CC200 (rhTPO 50 ng/ml, rhSCF 50 ng/ml, IL-3 10 ng/ml)) was “more induced megakaryocytic differentiation”. The “megakaryocytic differentiation together with Megacult-C, compared to each single treatment” value in assay [1] (addition of compound to Megacult-C (TPO 5 ng/ml, IL-3 1 ng/ml, IL-6 2 ng/ml)) is given as “more induced megakaryocytic differentiation”. Moreover, the “expression level of CD41 or CD61, CC200 together with the compound vs single treatment of CC200” value in assay [2] (35 ug/ml plus CC200, after 8 days) is “higher”. Besides, the “expression level of CD41 or CD61, megacult-C together with the compound vs single treatment of megacult-C” value in assay [2] (35 ug/ml plus Megacult-C (TPO 5 ng/ml), after 8 days) is on record as “higher”. In assay [2] (single treatment 35 ug/ml, after 8 days), the “expression level of megakaryocyte-specific marker CD41 or CD61, compared with cells treated with CC200 or megacult-C” value is listed as “higher”. Moreover, in the assay on K562 cells [3], the “GDF15 expression increase in differentiated cells (oligonucleotide array)” value is above 10 fold, the “INHBE expression increase in differentiated cells (oligonucleotide array)” value was above 10 fold, the “KLF2 expression increase in differentiated cells (oligonucleotide array)” value is listed as above 10 fold and the “LOC138255 expression increase in differentiated cells (oligonucleotide array)” value was above 10 fold. Further, the “polyploidization of non-transfected K562 cells” value in the assay with K562 cells [4] is “high nucleus number due to polyploidization through the endomitosis”.
As for “N-steroyl-O-phosphocholine-D-serine methyl ester [compound of Formula 1]”, in the assay on K562 cells [5], the “GDF15 gene expression pattern (RT-PCR)” value is “markedly expressed at 12 to 96 hr”, the “INHBE gene expression pattern (RT-PCR)” value was “markedly expressed at 12 to 96 hr”, the “KLF2 gene expression pattern (RT-PCR)” value is “markedly expressed at 12 to 96 hr” and the “LOC138255 gene expression pattern (RT-PCR)” value is on record as “markedly expressed at 12 to 96 hr”.
